In patent US20220323383A1, “SMALL-MOLECULAR ADJUVANTS AND IMPLEMENTATIONS THEREOF” (JAWAHARLAL NEHRU CENTRE FOR ADVANCED SCIENTIFIC RESEARCH, priority 2019, published 2022):

Key:
Format in all cases: cell-based
A. baumannii R674 [1] = test: Chequerboard combination efficacy of adjuvant with antibiotics
Protocol: (§1) All the solvents were of reagent grade, which were distilled and dried before its use. All the reagents were purchased from Sigma-Aldrich, Alfa-Aesar, S.D. Fine, Avra and Spectrochem, and were used without further purification. Analytical thin layer chromatography (TLC) was performed on E. Merck TLC plates pre-coated with silica gel 60 F254 and visualization was carried out using UV light and Iodine. Column chromatography was performed on silica gel (60-120 mesh) using different ratio of chloroform and methanol solvent system. Nuclear magnetic resonance spectra were recorded on Bruker (AV-400) 400 MHz spectrometer in deuterated solvents. Mass spectra were obtained using 6538-UHD Accurate mass Q-TOF LC-MS instrument. For optical density measurement during bacteriology experiments, Tecan Infinite Pro series M200 Microplate Reader was used. Bacterial strains, A. baumannii (R674), P. aeruginosa (R590), E. coli (R3336) and K. pneumoniae (R3934) were used for the studies.
(§2) The combination efficacy with antibiotics from different classes and individual antibacterial activity of the synthesized adjuvants was evaluated against the above mentioned MDR and NDM-1 strains of Gram-negative bacteria. All the bacteria were grown in peptone. The bacterial samples were freeze dried and stored at −80° C. 3 μl of these stocks were added to 3 mL of peptone and the culture was grown for 6 h at 37° C. prior to the experiments.
(§3) All synthesized compounds were assayed for their antibacterial activity in combination with antibiotics in a modified chequerboard micro-dilution broth format. Stock solutions were made by serially diluting the compounds using autoclaved millipore water. The bacterial freeze dried stock samples were stored at −80° C. About 3 μL of these stocks were added to about 3 mL of the respective broth and the culture was grown for about 6 h at about 37° C. with prior to the experiments. This 6 h grown culture gives about 10^8 cfu/mL in case of A. baumannii R674, P. aeruginosa R590, E. coli R3336 and K. pneumoniae R3934 which were determined by spread plating method. This 6 h grown culture was diluted to give effective cell concentration of 10^5 cfu/mL, and then used for the chequerboard assay. Adjuvants and antibiotics were serially diluted in two-fold, in sterile millipore water. 25 μL of these serial dilutions of the antibiotics and 25 μL of compounds were added to the wells of 96 well plate followed by the addition of about 150 μL of bacterial solution (˜10^5 cfu/mL). The plates were then incubated at about 37° C., 150 rpm in the incubator and O.D at 600 nm was recorded at 24 h using TECAN (Infinite series, M200 pro) Plate Reader. The wells with similar OD as the media control contained the required concentration of the antibiotic and adjuvant for antibacterial efficacy. The potentiation ability of the adjuvants was determined by calculating the potentiation factor and the Fractional Inhibitory concentration (FIC) index. Fractional Inhibitory Concentration (FIC) is expressed as, FIC=[X]/MICX, where [X] is the lowest inhibitory concentration of antibiotic in the presence of the adjuvant. Whereas FIC index is expressed as, FICI=FICantibiotic+FICadjuvant. The values of FIC index give an insight about the nature of the combination. Potentiation factor which means fold-reduction in the MIC of the antibiotic, when used in combination with the adjuvant was also determined. Potentiation factor=[Minimum inhibitory concentration (MIC) of antibiotic in absence of adjuvant]/[MIC of antibiotic in presence of adjuvant]. […] The combination efficacies of adjuvants with various antibiotics are furnished in Table 1. It should be noted that various other resistant strains of bacteria (Gram-positive and Gram-negative) can be tested with a number of other antibiotics to check the potentiation capacity of the adjuvants.

P. aeruginosa R590 [2] = test: as above; conditions: P. aeruginosa R590
Protocol: as §1, §2, §3

A. baumannii R674 [3] = test: Individual antibacterial activity (MIC) of adjuvants; conditions: adjuvant alone, A. baumannii R674
Protocol: as §2, §3

P. aeruginosa R590 [4] = test: as above; conditions: adjuvant alone, P. aeruginosa R590
Protocol: as §2, §3

human RBCs = test: Haemolytic activity; conditions: concentration at which 50% of human blood cells are lysed; 1 h at 37° C.
Protocol: Erythrocytes were isolated from freshly drawn, heparanized human blood and re-suspended to 5 vol % in PBS (pH 7.4). In a 96-well microtiter plate, 150 μl of erythrocyte suspension was added to 50 μl of serially diluted compound. Two controls were made, one without compound and other with 50 μl of 1 vol % solution of Triton X-100. The plate was incubated for 1 h at 37° C. The plate was then centrifuged at 3,500 rpm for 5 min, 100 μl of the supernatant from each well was transferred to a fresh 96-well microtiter plate, and A540 was measured. Percentage of hemolysis was determined as (A−A0)/(Atotal−A0)×100, where A is the absorbance of the test well, A0 the absorbance of the negative controls (without compound), and Atotal the absorbance of 100% hemolysis wells (with Triton X-100), all at 540 nm.
Toxicity studies of the compounds were done on freshly drawn human RBCs. Toxicity of the compounds were defined by their HC50 values (Table 2), i.e. the concentration of compound at which 50% of the blood cells are lysed.

E. coli R3336 [5] = test: Chequerboard combination efficacy of adjuvant with antibiotics
Protocol: as §1, §2, §3

K. pneumoniae R3934 [6] = test: as above
Protocol: as §1, §2, §3

E. coli R3336 [7] = test: Individual antibacterial activity (MIC) of adjuvants; conditions: Escherichia coli, R3336, read-out: MIC against clinical isolates of bacteria
Protocol: as §2, §3

K. pneumoniae R3934 [8] = test: as above; conditions: Klebsiella pneumoniae; adjuvant alone; K. pneumoniae R3934; read-out: MIC against clinical isolates of bacteria
Protocol: as §2, §3

`NCCCCCCN(CCCCCCN)CC(=O)NC1C2CC3CC(C2)CC1C3.O=C(O)C(F)(F)F.O=C(O)C(F)(F)F.O=C(O)C(F)(F)F` (stereo not shown) [Compound 12, N-(adamantan-2-yl)-2-[N′,N′-{bis-(6-amino)hexyl}amino] ethanamide tristrifluoroacetate] was tested, and the FICI (A. baumannii R674 [1]; antibiotic Rifampicin) was under 0.252, the “MIC of antibiotic in presence of adjuvant” value (shortened to “MIC of antibiotic”) (A. baumannii R674 [1]; antibiotic Rifampicin) was under 0.125 µg/mL and the Potentiation factor (A. baumannii R674 [1]; antibiotic Rifampicin) was over 512. For the same compound, the FICI (A. baumannii R674 [1]; antibiotic Tetracycline) was 0.625, the “MIC of antibiotic” value (A. baumannii R674 [1]; antibiotic Tetracycline) was 16 µg/mL and the Potentiation factor (A. baumannii R674 [1]; antibiotic Tetracycline) was 8. The FICI (P. aeruginosa R590 [2]; antibiotic Rifampicin) was 0.251, the “MIC of antibiotic” value (P. aeruginosa R590 [2]; antibiotic Rifampicin) was 0.125 µg/mL and the Potentiation factor (P. aeruginosa R590 [2]; antibiotic Rifampicin) was 1024. The FICI (P. aeruginosa R590 [2]; antibiotic Tetracycline) was 0.75, the “MIC of antibiotic” value (P. aeruginosa R590 [2]; antibiotic Tetracycline) was 64 µg/mL and the Potentiation factor (P. aeruginosa R590 [2]; antibiotic Tetracycline) was 4. For the same compound, the “MIC against clinical isolates of bacteria” value (A. baumannii R674 [3]) was 64 µg/mL, the “MIC against clinical isolates of bacteria” value (P. aeruginosa R590 [4]) was 64 µg/mL and the HC50 (human RBCs) was over 1024 µg/mL.
With `NCCCC[C@H](N)C(=O)NCCCCCCN(CCCCCCNC(=O)[C@@H](N)CCCCN)CC(=O)NC1C2CC3CC(C2)CC1C3` (stereo partly shown) [Compound 15, N-(adamantan-2-yl)-2-[N′,N′-{bis-(6-^LLys) amido)hexyl} amino] ethanamide pentakistrifluoroacetate] the “MIC of antibiotic” value (A. baumannii R674 [1]; antibiotic Ampicillin) was “No potentiation”, the FICI (A. baumannii R674 [1]; antibiotic Ciprofloxacin) was 1.25 and the “MIC of antibiotic” value (A. baumannii R674 [1]; antibiotic Ciprofloxacin) was 64 µg/mL. For the same compound, the Potentiation factor (A. baumannii R674 [1]; antibiotic Ciprofloxacin) was 4, the FICI (A. baumannii R674 [1]; antibiotic Erythromycin) was 0.1875 and the “MIC of antibiotic” value (A. baumannii R674 [1]; antibiotic Erythromycin) was 32 µg/mL. The Potentiation factor (A. baumannii R674 [1]; antibiotic Erythromycin) was 16, the FICI (A. baumannii R674 [1]; antibiotic Fusidic acid) was under 0.07 and the “MIC of antibiotic” value (A. baumannii R674 [1]; antibiotic Fusidic acid) was under 0.5 µg/mL. The Potentiation factor (A. baumannii R674 [1]; antibiotic Fusidic acid) was over 128, the FICI (A. baumannii R674 [1]; antibiotic Linezolid) was 1.125 and the Potentiation factor (A. baumannii R674 [1]; antibiotic Linezolid) was 8. The FICI (A. baumannii R674 [1]; antibiotic Minocycline) was 0.5625, the “MIC of antibiotic” value (A. baumannii R674 [1]; antibiotic Minocycline) was 0.5 µg/mL and the Potentiation factor (A. baumannii R674 [1]; antibiotic Minocycline) was 16. For the same compound, the FICI (A. baumannii R674 [1]; antibiotic Rifampicin) was 0.1289, the “MIC of antibiotic” value (A. baumannii R674 [1]; antibiotic Rifampicin) was 0.25 µg/mL and the Potentiation factor (A. baumannii R674 [1]; antibiotic Rifampicin) was 256. The “MIC of antibiotic” value (A. baumannii R674 [1]; antibiotic Streptomycin) was “No potentiation”, the FICI (A. baumannii R674 [1]; antibiotic Tetracycline) was 0.5156 and the “MIC of antibiotic” value (A. baumannii R674 [1]; antibiotic Tetracycline) was 2 µg/mL. For the same compound, the Potentiation factor (A. baumannii R674 [1]; antibiotic Tetracycline) was 64, the FICI (A. baumannii R674 [1]; antibiotic Vancomycin) was 0.5625 and the Potentiation factor (A. baumannii R674 [1]; antibiotic Vancomycin) was 2. The FICI (E. coli R3336 [5]; antibiotic Fusidic acid) was under 0.1875, the Potentiation factor (E. coli R3336 [5]; antibiotic Fusidic acid) was over 16 and the “MIC of antibiotic” value (E. coli R3336 [5]; antibiotic Linezolid) was “No potentiation”. For the same compound, the FICI (E. coli R3336 [5]; antibiotic Minocycline) was under 0.0469, the “MIC of antibiotic” value (E. coli R3336 [5]; antibiotic Minocycline) was 0.5 µg/mL and the Potentiation factor (E. coli R3336 [5]; antibiotic Minocycline) was 64. The FICI (E. coli R3336 [5]; antibiotic Rifampicin) was under 0.0469, the “MIC of antibiotic” value (E. coli R3336 [5]; antibiotic Rifampicin) was 16 µg/mL and the Potentiation factor (E. coli R3336 [5]; antibiotic Rifampicin) was 32. For the same compound, the FICI (K. pneumoniae R3934 [6]; antibiotic Fusidic acid) was under 0.0781, the “MIC of antibiotic” value (K. pneumoniae R3934 [6]; antibiotic Fusidic acid) was 8 µg/mL and the Potentiation factor (K. pneumoniae R3934 [6]; antibiotic Fusidic acid) was 64. The “MIC of antibiotic” value (K. pneumoniae R3934 [6]; antibiotic Linezolid) was “No potentiation”, the FICI (K. pneumoniae R3934 [6]; antibiotic Minocycline) was under 0.07 and the “MIC of antibiotic” value (K. pneumoniae R3934 [6]; antibiotic Minocycline) was 0.5 µg/mL. The Potentiation factor (K. pneumoniae R3934 [6]; antibiotic Minocycline) was 128, the FICI (K. pneumoniae R3934 [6]; antibiotic Rifampicin) was under 0.1289 and the “MIC of antibiotic” value (K. pneumoniae R3934 [6]; antibiotic Rifampicin) was 2 µg/mL. For the same compound, the Potentiation factor (K. pneumoniae R3934 [6]; antibiotic Rifampicin) was 256, the Potentiation factor (P. aeruginosa R590 [2]; antibiotic Chloramphenicol) was 4 and the FICI (P. aeruginosa R590 [2]; antibiotic Colistin) was 0.3125. For the same compound, the “MIC of antibiotic” value (P. aeruginosa R590 [2]; antibiotic Colistin) was 0.25 µg/mL, the Potentiation factor (P. aeruginosa R590 [2]; antibiotic Colistin) was 4 and the “MIC of antibiotic” value (P. aeruginosa R590 [2]; antibiotic Daptomycin) was “No potentiation”. The FICI (P. aeruginosa R590 [2]; antibiotic Fusidic acid) was under 0.1289, the “MIC of antibiotic” value (P. aeruginosa R590 [2]; antibiotic Fusidic acid) was under 0.25 µg/mL and the Potentiation factor (P. aeruginosa R590 [2]; antibiotic Fusidic acid) was over 256. For the same compound, the FICI (P. aeruginosa R590 [2]; antibiotic Linezolid) was 0.2812, the Potentiation factor (P. aeruginosa R590 [2]; antibiotic Linezolid) was 4 and the FICI (P. aeruginosa R590 [2]; antibiotic Minocycline) was 0.5. The “MIC of antibiotic” value (P. aeruginosa R590 [2]; antibiotic Minocycline) was 2 µg/mL, the Potentiation factor (P. aeruginosa R590 [2]; antibiotic Minocycline) was 4 and the FICI (P. aeruginosa R590 [2]; antibiotic Rifampicin) was under 0.126. The “MIC of antibiotic” value (P. aeruginosa R590 [2]; antibiotic Rifampicin) was under 0.125 µg/mL, the Potentiation factor (P. aeruginosa R590 [2]; antibiotic Rifampicin) was over 1024 and the FICI (P. aeruginosa R590 [2]; antibiotic Tetracycline) was 0.5078. The “MIC of antibiotic” value (P. aeruginosa R590 [2]; antibiotic Tetracycline) was 2 µg/mL, the Potentiation factor (P. aeruginosa R590 [2]; antibiotic Tetracycline) was 128 and the MIC (A. baumannii R674 [3]; Acinetobacter baumannii, read-out: MIC against clinical isolates of bacteria) was 128 µg/mL. It also gave an MIC (E. coli R3336 [7]) of over 512 µg/mL, an MIC (K. pneumoniae R3934 [8]) of over 512 µg/mL and an MIC (P. aeruginosa R590 [4]; Pseudomonas aeruginosa, read-out: MIC against clinical isolates of bacteria) of 64 µg/mL. It also gave an HC50 (human RBCs) of over 1024 µg/mL.
